# Patent US10118930B2, “Piperidinylpyrazolopyrimidinones and their use” (BAYER PHARMA AKTIENGESELLSCHAFT, priority 2015, dated 2018)
# Where a name gives a salt, the structure may show the parent alone.
# Tested on: clot lysis (fibrinolysis) in diluted human citrated plasma, tPA-induced
# Assay: Plasma-based clot lysis assay (5%)
# Format: biochemical
# Conditions: human citrated platelet-poor plasma 5%, fibrinogen 3 μM, CaCl2 10 mM, tPA 0.2 nM, 37° C., OD at 405 nm
# Experimental: B-2. Plasma-based Clot Lysis Assay (5%)
# The clot-lysis test system configures the kinetics of clot formation and degradation in vitro and allows quantifying modulation of the process by selected test compounds.
# The test compounds were dissolved in 1% acetic acid and further complemented with an equal volume of DMSO. The resulting stock solutions were serially diluted in 0.5% acetic acid/50% DMSO. 1 μL aliquots of these solutions were placed into 384 well microplates (Greiner, black, transparent bottom), followed by 30 μL of diluted human citrated plasma (platelet-poor, final concentration: 5%; supplemented with fibrinogen, final concentration: 3 μM; dilution buffer: 20 mM HEPES, 150 mM NaCl, 0.01% Brij (pH 7)). The reactions were started by addition of 20 μL of CaCl2 (final concentration: 10 mM), and tPA (tissue plasminogen activator, final concentration: 0.2 nM) in dilution buffer, followed by an additional volume of 20 μL dilution buffer for improved mixing. The reactions were incubated at 37° C. […] IC50 values were determined by comparing the resulting time courses with the time course of a blank control reaction.
row,IC50 [nM],Structure (SMILES)
1,34,"COCc1nnc(-c2cnn3c(C4CCNCC4)cc(=O)[nH]c23)o1 [Example 173, 3-[5-(methoxymethyl)-1,3,4-oxadiazol-2-yl]-7-(piperidin-4-yl)pyrazolo[1,5-a]pyrimidin-5(4H)-one hydrochloride]"
2,22,"Cc1ccc(-c2csc(-c3cnn4c(C5CCNCC5)cc(=O)[nH]c34)n2)c(C)c1 [Example 312, 3-[4-(2,4-dimethylphenyl)-1,3-thiazol-2-yl]-7-(piperidin-4-yl)pyrazolo[1,5-a]pyrimidin-5(4H)-one hydrochloride]"
3,45,"Cc1nn2c(C3CCNCC3)cc(=O)[nH]c2c1C(=O)N1Cc2ccccc2C1 [Example 410, 3-(1,3-dihydro-2H-isoindol-2-ylcarbonyl)-2-methyl-7-(piperidin-4-yl) pyrazolo[1,5-a] pyrimidin-5(4H)-one hydrochloride]"
4,35,"COc1ccc(-c2noc(-c3cnn4c(C5CCNCC5)cc(=O)[nH]c34)n2)cc1F [Example 122, 3-[3-(3-Fluoro-4-methoxyphenyl)-1,2,4-oxadiazol-5-yl]-7-(piperidin-4-yl)pyrazolo[1,5-a]pyrimidin-5(4H)-one hydrochloride]"
5,40,"O=c1cc(C2CCNCC2)n2ncc(-c3nc(-c4cccc(Cl)c4)cs3)c2[nH]1 [Example 163, 3-[4-(3-chlorophenyl)-1,3-thiazol-2-yl]-7-(piperidin-4-yl)pyrazolo[1,5-a]pyrimidin-5 (4H)-one hydrochloride]"
6,38,"CCCOC(=O)c1c(C)nn2c(C3CCNCC3)cc(=O)[nH]c12 [Example 365, Propyl 2-methyl-5-oxo-7-(piperidin-4-yl)-4,5-dihydropyrazolo[1,5-a]pyrimidine-3-carboxylate hydrochloride]"
7,38,"O=c1cc(C2CCNCC2)n2ncc(-c3nc(-c4cccc(OC(F)(F)F)c4)no3)c2[nH]1 [Example 124, 7-(Piperidin-4-yl)-3-{3-[3-(trifluoromethoxy)phenyl]-1,2,4-oxadiazol-5-yl}pyrazolo[1,5-a]pyrimidin-5(4H)-one hydrochloride]"
8,82,O=c1cc(C2CCNCC2)n2ncc(-c3nc(-c4ccco4)no3)c2[nH]1 [Example 110]
9,74,"Cc1ccc(Cl)cc1-c1noc(-c2cnn3c(C4CCNCC4)cc(=O)[nH]c23)n1 [Example 141, 3-[3-(5-Chloro-2-methylphenyl)-1,2,4-oxadiazol-5-yl]-7-(piperidin-4-yl)pyrazolo[1,5-a]pyrimidin-5(4H)-one hydrochloride]"
10,170,"O=c1cc(C2CCNCC2)n2nc(-c3ccc(F)cc3)cc2[nH]1 [Example 27, 2-(4-Fluorophenyl)-7-(piperidin-4-yl)pyrazolo[1,5-a]pyrimidin-5(4H)-one hydrochloride]"
11,40,"O=c1cc(C2CCNCC2)n2ncc(-c3ccc(F)cc3)c2[nH]1 [Example 4, 3-(4-Fluorophenyl)-7-(piperidin-4-yl)pyrazolo[1,5-a]pyrimidin-5(4H)-one hydrochloride]"
12,76,"O=c1cc(C2CCNCC2)n2ncc(-c3nc(C4CCC4)no3)c2[nH]1 [Example 108, 3-(3-cyclobutyl-1,2,4-oxadiazol-5-yl)-7-(piperidin-4-yl)pyrazolo[1,5-a]pyrimidin-5(4H)-one]"
13,34,"COc1ccc(OC)c(-c2cnn3c(C4CCNCC4)cc(=O)[nH]c23)c1 [Example 62, 3-(2,5-Dimethoxyphenyl)-7-(piperidin-4-yl)pyrazolo[1,5-a]pyrimidin-5(4H)-one hydrochloride]"
14,35,"CN(CC(F)(F)F)C(=O)c1cnn2c(C3CCNCC3)cc(=O)[nH]c12 [Example 103, N-methyl-5-oxo-7-(piperidin-4-yl)-N-(2,2,2-trifluoroethyl)-4,5-dihydropyrazolo[1,5-a]pyrimidine-3-carboxamide hydrochloride]"
15,15,"Cc1ccc(-c2nc(-c3cnn4c(C5CCNCC5)cc(=O)[nH]c34)no2)cc1 [Example 220, 3-[5-(4-methylphenyl)-1,2,4-oxadiazol-3-yl]-7-(piperidin-4-yl)pyrazolo[1,5-a]pyrimidin-5 (4H)-one hydrochloride]"
16,34,"O=c1cc(C2CCNCC2)n2ncc(-c3ccc4c(c3)OCCO4)c2[nH]1 [Example 61, 3-(2,3-Dihydro-1,4-benzodioxin-6-yl)-7-(piperidin-4-yl)pyrazolo[1,5-a]pyrimidin-5 (4H)-one hydrochloride]"
17,62,"Cc1ccc(-c2noc(-c3cnn4c(C5CCNCC5)cc(=O)[nH]c34)n2)c(C)c1 [Example 127, 3-[3-(2,4-Dimethylphenyl)-1,2,4-oxadiazol-5-yl]-7-(piperidin-4-yl)pyrazolo[1,5-a]pyrimidin-5(4H)-one hydrochloride]"

row,IC50 [nM],Structure (SMILES)
1,18,"COc1ccc(-c2cnn3c(C4CCNCC4)cc(=O)[nH]c23)cc1OC [Example 54, 3-(3,4-Dimethoxyphenyl)-7-(piperidin-4-yl)pyrazolo[1,5-a]pyrimidin-5(4H)-one hydrochloride]"
2,35,"O=c1cc(C2CCNCC2)n2ncc(-c3nc(-c4cccc(Cl)c4F)no3)c2[nH]1 [Example 132, 3-[3-(3-Chloro-2-fluorophenyl)-1,2,4-oxadiazol-5-yl]-7-(piperidin-4-yl)pyrazolo[1,5-a]pyrimidin-5(4H)-one hydrochloride]"
3,51,"CC(F)(F)COC(=O)c1cnn2c(C3CCNCC3)cc(=O)[nH]c12 [Example 463, 2,2-difluoropropyl 5-oxo-7-(piperidin-4-yl)-4,5-dihydropyrazolo[1,5-a]pyrimidine-3-carboxylate hydrochloride]"
4,32,"Cc1ccc(Cc2noc(-c3cnn4c(C5CCNCC5)cc(=O)[nH]c34)n2)cc1 [Example 214, 3-[3-(4-methylbenzyl)-1,2,4-oxadiazol-5-yl]-7-(piperidin-4-yl)pyrazolo[1,5-a]pyrimidin-5(4H)-one hydrochloride]"
5,35,"O=c1cc(C2CCNCC2)n2ncc(-c3nnc(Cc4ccccc4)o3)c2[nH]1 [Example 180, 3-(5-benzyl-1,3,4-oxadiazol-2-yl)-7-(piperidin-4-yl)pyrazolo[1,5-a]pyrimidin-5(4H)-one hydrochloride]"
6,29,"O=C(N=S1(=O)CCOCC1)c1cnn2c(C3CCNCC3)cc(=O)[nH]c12 [Example 37, N-(4-Oxido-1,4-lambda^4-oxathian-4-ylidene)-5-oxo-7-(piperidin-4-yl)-4,5-dihydropyrazolo[1,5-a]pyrimidine-3-carboxamide hydrochloride]"
7,40,"COCC1CCCN(C(=O)c2c(C)nn3c(C4CCNCC4)cc(=O)[nH]c23)C1 (stereo not shown) [Example 402, 3-{[3-(methoxymethyl)piperidin-1-yl]carbonyl}-2-methyl-7-(piperidin-4-yl) pyrazolo[1,5-a] pyrimidin-5(4H)-one hydrochloride]"
8,35,"O=c1cc(C2CCNCC2)n2ncc(-c3nnc(-c4cccc(C(F)(F)F)c4)o3)c2[nH]1 [Example 175, 7-(piperidin-4-yl)-3-{5-[3-(trifluoromethyl)phenyl]-1,3,4-oxadiazol-2-yl}pyrazolo[1,5-a]pyrimidin-5(4H)-one hydrochloride]"
9,56,"Cc1nn2c(C3CCNCC3)cc(=O)[nH]c2c1C(=O)N1CCOC(C)(C)C1 [Example 426, 3-[(2,2-dimethyl-morpholin-4-yl)carbonyl]-2-methyl-7-(piperidin-4-yl) pyrazolo[1,5-a] pyrimidin-5(4H)-one hydrochloride]"
10,11,"CCOC(=O)c1cnn2c(C3CCNCC3)cc(=O)[nH]c12 [Example 16, Ethyl 5-oxo-7-(piperidin-4-yl)-4,5-dihydropyrazolo[1,5-a]pyrimidine-3-carboxylate hydrochloride]"
11,34,"O=c1cc(C2CCNCC2)n2ncc(-c3ccccc3OC(F)(F)F)c2[nH]1 [Example 71, 7-(Piperidin-4-yl)-3-[2-(trifluoromethoxy)phenyl]pyrazolo[1,5-a]pyrimidin-5(4H)-one hydrochloride]"
12,32,"CCN(C(=O)c1c(C)nn2c(C3CCNCC3)cc(=O)[nH]c12)C1CC1 [Example 400, N-cyclopropyl-N-ethyl-2-methyl-5-oxo-7-(piperidin-4-yl)-4,5-dihydro-pyrazolo[1,5-a] pyrimidine-3-carboxamide hydrochloride]"
13,44,"O=C(OCCCF)c1cnn2c(C3CCNCC3)cc(=O)[nH]c12 [Example 352, 3-fluoropropyl 5-oxo-7-(piperidin-4-yl)-4,5-dihydropyrazolo[1,5-a]pyrimidine-3-carboxylate hydrochloride]"
14,15,"O=c1cc(C2CCNCC2)n2ncc(-c3cccs3)c2[nH]1 [Example 59, 7-(Piperidin-4-yl)-3-(2-thienyl)pyrazolo[1,5-a]pyrimidin-5(4H)-one hydrochloride]"
15,27,"O=C(OCC(F)(F)F)c1cnn2c(C3CCNCC3)cc(=O)[nH]c12 [Example 354, 2,2,2-trifluoroethyl 5-oxo-7-(piperidin-4-yl)-4,5-dihydropyrazolo[1,5-a]pyrimidine-3-carboxylate hydrochloride]"
16,33,"O=c1cc(C2CCNCC2)n2ncc(-c3nnc(O)o3)c2[nH]1 [Example 286, 3-(5-hydroxy-1,3,4-oxadiazol-2-yl)-7-(piperidin-4-yl)pyrazolo[1,5-a]pyrimidin-5(4H)-one hydrochloride]"
17,40,"COc1cccc(-c2noc(-c3cnn4c(C5CCNCC5)cc(=O)[nH]c34)n2)c1 [Example 125, 3-[3-(3-Methoxyphenyl)-1,2,4-oxadiazol-5-yl]-7-(piperidin-4-yl)pyrazolo[1,5-a]pyrimidin-5 (4H)-one hydrochloride]"
